Measured values: patent US12240822B2, “Naphthalene isoxazoline compound and application thereof” (SHANDONG C[…] SEA PHARMACEUTICAL TECHNOLOGY CO., LTD., priority 2023, dated 2025)
Converted amounts (≈) assume the structure as drawn. “And” between values parts separate entries of the source, which are not always exact repeats. Identical values can stand only once.

How the values were obtained:
[1] = system: Thrips palmi Karny; assay: Indoor toxicity test on Thrips palmi Karny adults, liquid tube drug film method with leaf soaking; assay type: in vivo; parameters: LC90 value of the A4 as fraction of the LC90 value of the C4 / LC90 value of the A4 as fraction of the LC90 value of the B4: unit not given beside the values; settings: for LC50 / LC90: Thrips palmi Karny adults, 48 h after administration
Method: Through indoor tests, a liquid tube drug film method improved by a filter paper drug film method was used for evaluating the indoor toxicity effects of three raw drugs on Thrips palmi Karny.
Thrips palmi Karny was raised indoors in the insectary of the Plant Protection Institute of Shandong Academy of Agricultural Sciences.
Culture was performed in an illumination incubator, and raising and observation were performed under the conditions that the temperature was 25.0±2.0° C., the relative humidity was 75±5% and the photoperiod (L/D) was 14 h/10 h.
The insect for tests is an adult of Thrips palmi Karny.
Three test medicaments were prepared into a mother solution with methanol and then diluted with a Tween-80 aqueous solution having a mass concentration of 0.1% in equal proportions, and the concentration was set in equal proportions. • B4 concentration: 0.5, 1, 2, 4, 8, 16 mg/L; • C4 concentration: 25, 12.5, 6.25, 3.125, 1.5625, 0.7813 mg/L; • A4 concentration: 0.1, 0.05, 0.025, 0.0125, 0.00625, 0.003125 mg/L. 3.2.2 Test Repetition
Each processing was repeated 4 times, and 30 insects for tests were used for each repetition.
According to NY/T 1154.8-2007, the liquid tube drug film method improved by the filter paper drug film method was used for processing insects for tests. Medicaments for tests were diluted into 6 concentrations, a 1.5 mL centrifugal tube was filled with each concentration of liquid medicine respectively and allowed to stand for 4 h, then the liquid medicine was poured out, and the centrifugal tube was placed on a test table and air-dried for later use. A fine needle tip was heated with an alcohol lamp, and a small hole with a diameter of about 2-3 mm was formed at the bottom of the air-dried centrifugal tube by heating. One repetition was performed for each tube, and 4 repetitions were performed for each concentration. Leaf soaking: A hole puncher was used for punching fresh cabbage leaves into circular leaves with a diameter of 0.5 cm, and the circular leaves were respectively soaked in each concentration of liquid medicine for 10 s with leaf soaking in clear water as a control. The processed leaves were placed on absorbent paper and air-dried and then clamped with small tweezers into the centrifugal tubes with corresponding liquid medicine concentrations, and one leaf was placed flatly in each tube. Indoor insects for tests: An interface of an insect sucker was sealed with gauze and sleeves an orifice of the processed centrifugal tube, and the hole formed by heating at the bottom of the centrifugal tube was aligned with the insects for tests to enable the insects for tests to be sucked into the centrifugal tube along the airflow. The insects for tests were processed after control, about 30 insects for tests were sucked for each repetition, then a tube cover was covered, and the hole formed by heating was sealed with a sealing film. After related information was marked, the number of live insects and the number of dead insects were recorded 48 h later.
Test results were investigated 48 h after drug post-processing.
The logarithm of the medicament concentration (mg/L) was taken as an independent variable X, the probability value of a corrected death rate was taken as a dependent variable Y, and the LC50 value, LC90 value, 95% confidence limit and R2 of a toxicity regression line were computed by DPS software.

[2] = system: Myzus persicae Sulzer; assay: Indoor toxicity test on Myzus persicae Sulzer wingless aphids, insect soaking and leaf soaking method; assay type: in vivo; parameters: LC50 value of the A4 as fraction of the LC50 value of the C4 / LC50 value of the A4 as fraction of the LC50 value of the B4: unit not given beside the values; settings: for LC50: Myzus persicae Sulzer wingless aphids, 48 h after administration
Method: The aphid species was Myzus persicae Sulzer, which was a sensitive population raised indoors in the bioassay room of the Plant Protection Institute of Shandong Academy of Agricultural Sciences. The temperature range was 24-26° C., the humidity range was 60%-80%, and the illumination was L:D=16 h:8 h. Aphids used for tests were wingless aphids.
Test medicaments were prepared into a mother solution with methanol and then diluted with a Tween-80 aqueous solution having a mass concentration of 0.1% in equal proportions. According to effective components, the B4 was set to 6 concentration gradients of 0.5 mg/L, 1 mg/L, 2 mg/L, 4 mg/L, 8 mg/L, and 16 mg/L; the C4 was set to 6 concentration gradients of 0.5 mg/L, 1 mg/L, 2 mg/L, 4 mg/L, 8 mg/L, and 16 mg/L; and the A4 was set to 6 concentration gradients of 0.05 mg/L, 0.1 mg/L, 0.2 mg/L, 0.4 mg/L, 0.8 mg/L, and 1.6 mg/L. A methanol aqueous solution having a volume concentration of 4% was taken as a blank control.
Insects for tests were processed according to an insect soaking method (NY/T 1154.6-2006) and a leaf soaking method (NY/T 1154.14-2008). Each medicament for tests was diluted to the set 6 concentrations for later use. Absorbent paper was placed at the bottom of a disposable plastic cup, a layer of filter paper was laid on the absorbent paper, and 2 mL of distilled water was added to keep moisture for later use. Leaves with aphids were cut into small leaves, each leaf has about 20 wingless aphids, and the leaves with aphids were gently soaked in the liquid medicine with tweezers and then taken out after 10 s, and placed on the absorbent paper and air-dried. The air-dried leaves were placed in the prepared plastic cups which were then covered, and one leaf was placed in each plastic cup. One repetition was performed for each plastic cup, and 4 repetitions were performed for each concentration. The plastic cups were placed in an illumination incubator, and the number of live aphids and the number of dead aphids were recorded 48 h later.
DPS software was used for processing, and the median lethal concentration LC50 and 95% confidence limit of 3 test medicaments on aphids at 48 h were determined.
The logarithm of the medicament concentration (mg/L) was taken as an independent variable X, the probability value of a corrected death rate was taken as a dependent variable Y, and the LC50 value, 95% confidence limit and R2 of a toxicity regression line were computed by DPS software.

[3] = 0.05 mg/L, 48 h, single repetitions 1-4
[4] = 0.1 mg/L, 48 h, single repetitions 1-4
[5] = 4 mg/L, 48 h, single repetitions 1-4
[6] = 8 mg/L, 48 h, single repetitions 1-4
[7] = 16 mg/L, 48 h, single repetitions 1-4

SMILES: CO/N=C/NC(=O)c1ccc(C2=NOC(c3cc(Cl)cc(C(F)(F)F)c3)(C(F)(F)F)C2)c2ccccc12 (stereo not drawn) [A4, 4-(5-(3-chloro-5-(trifluoromethyl)phenyl)-5-(trifluoromethyl)-4,5-dihydroisoxazol-3-yl)-N-((methoxylimino)methyl)-1-naphthyl formamide]
- Death rate ([1]; 0.003125 mg/L, 48 h, Total/Average): 9.97%
- Death rate ([1]; 0.00625 mg/L, 48 h, Total/Average): 37.74%
- Death rate ([1]; 0.00625 mg/L, 48 h, single repetitions 1-4): 35.00% and 29.41% and 42.11% and 44.44%
- Death rate ([1]; 0.0125 mg/L, 48 h, Total/Average): 61.14%
- Death rate ([1]; 0.0125 mg/L, 48 h, single repetitions 1-4): 55.00% and 60.00% and 69.57%
- Death rate ([1]; 0.025 mg/L, 48 h, Total/Average): 80.47%
- Death rate ([1]; 0.025 mg/L, 48 h, single repetitions 1-4): 85.19% and 73.91% and 80.95% and 81.82%
- Death rate ([1]; 0.05 mg/L, 48 h, Total/Average): 91.01%
- Death rate [1, 3]: 85.71% and 91.30% and 94.44% and 92.59%
- Death rate ([1]; 0.1 mg/L, 48 h, Total/Average): 100.00%
- Death rate [1, 4]: 100.00%
- LC50 [1]: 0.0123 µg/mL (≈ 0.0226 µM)
- LC90 [1]: 0.0705 µg/mL (≈ 0.13 µM)
- LC90 value of the A4 as fraction of the LC90 value of the B4 ([1]; Thrips palmi Karny, 48 h): 2/1000
- LC90 value of the A4 as fraction of the LC90 value of the C4 ([1]; Thrips palmi Karny, 48 h): 4/1000
- Death rate ([2]; 0.05 mg/L, 48 h, Total): 15.94%
- Death rate [2, 3]: 15.00% and 17.24% and 16.13% and 15.38%
- Death rate ([2]; 0.1 mg/L, 48 h, Total): 24.96%
- Death rate [2, 4]: 23.53% and 22.73% and 25.00% and 28.57%
- Death rate ([2]; 0.2 mg/L, 48 h, Total): 33.73%
- Death rate ([2]; 0.2 mg/L, 48 h, single repetitions 1-4): 33.33% and 35.71% and 34.29% and 31.58%
- Death rate ([2]; 0.4 mg/L, 48 h, Total): 40.78%
- Death rate ([2]; 0.4 mg/L, 48 h, single repetitions 1-4): 50.00% and 43.48% and 37.50% and 32.14%
- Death rate ([2]; 0.8 mg/L, 48 h, Total): 63.22%
- Death rate ([2]; 0.8 mg/L, 48 h, single repetitions 1-4): 61.29% and 67.74% and 60.53% and 63.33%
- Death rate ([2]; 1.6 mg/L, 48 h, Total): 84.47%
- Death rate ([2]; 1.6 mg/L, 48 h, single repetitions 1-4): 87.10% and 81.25% and 86.21% and 83.33%
- LC50 [2]: 0.439 µg/mL (≈ 0.807 µM)
- LC50 value of the A4 as fraction of the LC50 value of the B4 ([2]; Myzus persicae Sulzer, 48 h): 14/100
- LC50 value of the A4 as fraction of the LC50 value of the C4 ([2]; Myzus persicae Sulzer, 48 h): 40/100

SMILES: CO/N=C/NC(=O)c1ccc(C2=NOC(c3cc(Cl)cc(Cl)c3)(C(F)(F)F)C2)c2ccccc12 (stereo not drawn) [B4, 4-(5-(3,5-dichlorophenyl)-5-(trifluoromethyl)-4,5-dihydroisoxazol-3-yl)-N-((methoxylimino)methyl)-1-naphthyl formamide]
- Death rate ([1]; 0.5 mg/L, 48 h, Total/Average): 18.31%
- Death rate ([1]; 1 mg/L, 48 h, Total/Average): 30.20%
- Death rate ([1]; 2 mg/L, 48 h, Total/Average): 33.85%
- Death rate ([1]; 2 mg/L, 48 h, single repetitions 1-4): 30.77% and 36.84% and 27.78% and 40.00%
- Death rate ([1]; 4 mg/L, 48 h, Total/Average): 47.56%
- Death rate [1, 5]: 52.00% and 41.38% and 54.55% and 42.31%
- Death rate ([1]; 8 mg/L, 48 h, Total/Average): 67.00%
- Death rate [1, 6]: 79.17% and 68.00% and 58.33% and 62.50%
- Death rate ([1]; 16 mg/L, 48 h, Total/Average): 98.68%
- Death rate [1, 7]: 100.00% and 94.74%
- LC50 [1]: 3.33 µg/mL (≈ 6.53 µM)
- LC90 [1]: 33.9739 µg/mL (≈ 66.6 µM)
- Death rate ([2]; 0.5 mg/L, 48 h, Total): 12.01%
- Death rate ([2]; 0.5 mg/L, 48 h, single repetitions 1-4): 10.00% and 12.50% and 13.04%
- Death rate ([2]; 1 mg/L, 48 h, Total): 20.73%
- Death rate ([2]; 1 mg/L, 48 h, single repetitions 1-4): 15.15% and 22.22% and 21.74% and 23.81%
- Death rate ([2]; 2 mg/L, 48 h, Total): 45.08%
- Death rate ([2]; 4 mg/L, 48 h, Total): 61.17%
- Death rate [2, 5]: 41.94% and 58.33% and 72.00% and 72.41%
- Death rate ([2]; 8 mg/L, 48 h, Total): 78.33%
- Death rate [2, 6]: 80.95% and 66.67% and 85.71% and 80.00%
- Death rate ([2]; 16 mg/L, 48 h, Total): 84.61%
- Death rate [2, 7]: 88.89% and 86.96% and 81.82% and 80.77%
- LC50 [2]: 3.13 µg/mL (≈ 6.14 µM)
